In US20160122312A1, “ANTI-VIRAL COMPOUNDS, PHARMACEUTICAL COMPOSITIONS AND METHODS OF USE THEREOF” (KINETA, INC., priority 2013, published 2016):

Experiments:
[1] = system: influenza virus A/Udorn/72 H3N2 strain; test: influenza focus-forming assay in 293 cells; type: cell-based; details: for viral infection of 293 cells (decrease in foci, dose dependence): FIGS. 3A, 3B; for IC50: HEK293, 24 h, read-out: Flu IC50; for antiviral activity compared with KIN101 (viral titer): FIG. 3A
[2] = system: DNV type 2 strain; test: DNV focus-forming assay in Huh7 cells; type: cell-based, Dengue virus; details: for IC50: Dengue virus, Huh-7, Huh7 cells, treatment after infection, 48 hours replication; for viral infection of Huh7 cells (decrease in foci, dose dependence): FIG. 4B
[3] = system: Murine EMCV; test: EMCV in vitro antiviral assay, Huh7 cell viability by MTS; type: cell-based, encephalomyocarditis virus; details: Huh7 cells; for Cell viability post-infection: 5 hours before EMCV, MTS 18 hours after infection
Procedure: In an encephalomyocarditis virus (EMCV) in vitro antiviral assay, Huh7 cells were grown under normal growth conditions and treated with the indicated amount of KIN101 in media containing 0.5% DMSO. The cells were grown in the presence of compound for 5 hours and then infected with 250 pfu Murine EMCV obtained from ATCC #VR-129B. Infected cells were grown for an additional 18 hours and then cell viability was measured using an MTS assay. Negative control cells were treated with buffer alone containing 0.5% DMSO. Interferon treatment was used as a positive control for virus inhibition and was added similar to compound treatments at a final concentration of 10 IU/mL Interferon-α: Intron A, from Schering-Plough. Cell viability was measured using an MTS assay, CellTiter 96® AQueous One Solution Cell Proliferation Assay (MTS), from Promega #G3580. […]

[4] = system: RSV A2 Long strain; test: RSV antiviral assay in HeLa cells; type: cell-based, respiratory syncytial virus; details: 48 hours post infection, FIG. 2B
[5] = system: hCMV AD169 strain; test: hCMV focus-forming assay in human foreskin fibroblasts; type: cell-based, human cytomegalovirus; details: FIGS. 5A, 5B
[6] = system: interferon-stimulated gene (ISG) induction; test: preliminary screen of natural product library for ISG induction; type: cell-based; details: preliminary screen of NCI natural product library
Excerpt: The compounds disclosed herein are described as isoflavone compounds. Isoflavones are best known as natural products isolated from the Leguminosae (legume) family and are usually polyhydroxylated and pharmacologically active as phytoestrogenics and antioxidants. The most recognizable member of this class is genistein, which has been reported to have anticancer activities and to induce thymic and immune changes in mammals (Banerjee, S., et al. (2008) Multi-targeted therapy of cancer by genistein, Cancer Lett 269, 226-242).

Compound: CS(=O)(=O)Oc1ccc2c(=O)c(-c3ccc(Br)cc3)coc2c1 [KIN101]
- viral infection of 293 cells (decrease in foci, dose dependence) [1]: dose-dependent decreases in viral infection
- IC50 [1]: 2000 nM
- IC50 [2]: > 5000 nM
- viral infection of Huh7 cells (decrease in foci, dose dependence) [2]: dose-dependent decreases in viral infection
- viral protein in cells infected with DNV ([2]; increasing amounts of compound, FIG. 4A): dose-dependent decrease in viral protein
- Cell viability post-infection ([3]; 5 units added): ~0.7
- Cell viability post-infection ([3]; 10 units added): ~1.2
- Cell viability post-infection ([3]; 20 units added): ~1.45
- cell viability following infection with EMCV (in words) [3]: protective of cell viability
- RSV viral RNA [4]: decreased RSV viral RNA

Compound: CS(=O)(=O)Oc1ccc2c(=O)c(-c3ccc(OC(F)(F)F)cc3)coc2c1 [KIN134]
- antiviral activity compared with KIN101 (viral titer) [1]: improved on this antiviral activity
- IC50 [1]: 450 nM
- IC50 [2]: 3970 nM
- viral infection of Huh7 cells (decrease in foci, dose dependence) [2]: dose-dependent decreases in viral infection
- hCMV as measured by foci (FFU/mL), dose dependence [5]: dose-dependent decreases in hCMV

Compound: O=C(COc1ccc2c(=O)c(-c3ccc(Br)cc3)coc2c1)N1CCOCC1 [KIN238]
- IC50 [1]: 1200 nM
- IC50 [2]: 1180 nM

Compound: CS(=O)(=O)Oc1ccc2c(=O)c(-c3ccc(C(F)(F)F)cc3)coc2c1 [KIN263]
- antiviral activity compared with KIN101 (viral titer) [1]: improved on this antiviral activity
- IC50 [1]: 800 nM
- IC50 [2]: 1390 nM

Compound: CS(=O)(=O)Oc1ccc2c(=O)c(-c3cccc4ccccc34)coc2c1 [KIN267]
- antiviral activity compared with KIN101 (viral titer) [1]: improved on this antiviral activity

Compound: CC(C)(C)c1ccc(-c2coc3cc(OS(C)(=O)=O)ccc3c2=O)cc1 [KIN269]
- IC50 [1]: 145 nM
- IC50 [2]: 542 nM

Compound: CS(=O)(=O)Oc1ccc2c(=O)c(C3CCCC3)coc2c1 [KIN282]
- antiviral activity compared with KIN101 (viral titer) [1]: improved on this antiviral activity

Compound: O=C(COc1ccc2c(=O)c(-c3ccc(OC(F)(F)F)cc3)coc2c1)N1CCOCC1 [KIN290]
- IC50 [1]: 1530 nM
- IC50 [2]: 3100 nM

Compound: CN(c1ccc(-c2coc3cc(OS(C)(=O)=O)ccc3c2=O)cc1)S(C)(=O)=O [KIN291]
- antiviral activity compared with KIN101 (viral titer) [1]: improved on this antiviral activity

Compound: O=c1c(-c2ccc(OC(F)(F)F)cc2)coc2cc(OC(F)F)ccc12 [KIN299]
- viral infection of 293 cells (decrease in foci, dose dependence) [1]: dose-dependent decreases in viral infection
- IC50 [1]: 709 nM
- IC50 [2]: > 5000 nM

Compound: CC(C)(C)c1ccc(-c2coc3cc(OCC(=O)N4CCOCC4)ccc3c2=O)cc1 [KIN306]
- antiviral activity compared with KIN101 (viral titer) [1]: improved on this antiviral activity
- IC50 [1]: 880 nM
- IC50 [2]: 2810 nM

Compound: CS(=O)(=O)Oc1ccc2c(=O)c(-c3ccc(NS(=O)(=O)N4CCCCC4)cc3)coc2c1 [KIN308]
- antiviral activity compared with KIN101 (viral titer) [1]: improved on this antiviral activity
- IC50 [1]: 108 nM
- IC50 [2]: 4160 nM

Compound: C#CCOc1ccc2c(=O)c(-c3ccc(C(C)(C)C)cc3)coc2c1 [KIN328]
- viral infection of 293 cells (decrease in foci, dose dependence) [1]: dose-dependent decreases in viral infection
- IC50 [1]: 286 nM
- IC50 [2]: 1340 nM
- viral infection of Huh7 cells (decrease in foci, dose dependence) [2]: dose-dependent decreases in viral infection
- hCMV as measured by foci (FFU/mL), dose dependence [5]: dose-dependent decreases in hCMV

Compound: CS(=O)(=O)Oc1ccc2c(=O)c(-c3ccc(OCC4CC4)cc3)coc2c1 [KIN371]
- viral infection of 293 cells (decrease in foci, dose dependence) [1]: dose-dependent decreases in viral infection
- IC50 [1]: 156 nM
- IC50 [2]: > 5000 nM

Compound: CC(C)(C)COc1ccc(-c2coc3cc(OS(C)(=O)=O)ccc3c2=O)cc1 [KIN372]
- viral infection of 293 cells (decrease in foci, dose dependence) [1]: dose-dependent decreases in viral infection
- IC50 [1]: 37 nM
- IC50 [2]: 1690 nM
- viral infection of Huh7 cells (decrease in foci, dose dependence) [2]: dose-dependent decreases in viral infection
- hCMV as measured by foci (FFU/mL), dose dependence [5]: dose-dependent decreases in hCMV

Compound: CS(=O)(=O)Oc1ccc2c(=O)c(-c3ccc(OCC(F)(F)F)cc3)coc2c1 [KIN376]
- viral infection of 293 cells (decrease in foci, dose dependence) [1]: dose-dependent decreases in viral infection
- IC50 [1]: 103 nM
- IC50 [2]: 5000 nM
- viral infection of Huh7 cells (decrease in foci, dose dependence) [2]: dose-dependent decreases in viral infection
- hCMV as measured by foci (FFU/mL), dose dependence [5]: dose-dependent decreases in hCMV

Compound: CS(=O)(=O)Oc1ccc2c(=O)c(-c3ccc(OC(F)F)cc3)coc2c1 [KIN378]
- IC50 [1]: 600 nM
- IC50 [2]: > 5000 nM

Compound: CN(c1ccc2c(=O)c(-c3ccc(C(C)(C)C)cc3)coc2c1)S(C)(=O)=O [KIN385]
- viral infection of 293 cells (decrease in foci, dose dependence) [1]: dose-dependent decreases in viral infection
- IC50 [1]: 9 nM
- IC50 [2]: 293 nM
- viral infection of Huh7 cells (decrease in foci, dose dependence) [2]: dose-dependent decreases in viral infection
- hCMV as measured by foci (FFU/mL), dose dependence [5]: dose-dependent decreases in hCMV

Compound: CS(=O)(=O)Oc1ccc2c(=O)c(-c3ccc(OCC4CCOCC4)cc3)coc2c1 [KIN389]
- IC50 [1]: 200 nM
- IC50 [2]: > 5000 nM

Compound: CC(C)(C)c1ccc(-c2coc3cc(OCCN4CCOCC4)ccc3c2=O)cc1 [KIN392]
- viral infection of 293 cells (decrease in foci, dose dependence) [1]: dose-dependent decreases in viral infection
- IC50 [1]: 9 nM
- IC50 [2]: 650 nM
- hCMV as measured by foci (FFU/mL), dose dependence [5]: dose-dependent decreases in hCMV

Compound: CC(=O)N1CCN(CCOc2ccc3c(=O)c(-c4ccc(C(C)(C)C)cc4)coc3c2)CC1 [KIN394]
- viral infection of 293 cells (decrease in foci, dose dependence) [1]: dose-dependent decreases in viral infection
- IC50 [1]: 70 nM
- IC50 [2]: 940 nM
- hCMV as measured by foci (FFU/mL), dose dependence [5]: dose-dependent decreases in hCMV

Compound: CC(C)(C)c1ccc(-c2coc3cc(OCCN4CCN(S(C)(=O)=O)CC4)ccc3c2=O)cc1 [KIN395]
- viral infection of 293 cells (decrease in foci, dose dependence) [1]: dose-dependent decreases in viral infection
- IC50 [1]: 57 nM
- IC50 [2]: 1970 nM
- hCMV as measured by foci (FFU/mL), dose dependence [5]: dose-dependent decreases in hCMV

Compound: CN1CCN(CCOc2ccc3c(=O)c(-c4ccc(C(C)(C)C)cc4)coc3c2)CC1 [KIN807]
- IC50 [1]: 143 nM
- IC50 [2]: 130 nM

Compound: CC(=O)N1CCN(CCOc2ccc3c(=O)c(-c4ccc(OC(F)(F)F)cc4)coc3c2)CC1 [KIN814]
- IC50 [1]: 62 nM
- IC50 [2]: 187 nM

Compound: CN1CCN(CCOc2ccc3c(=O)c(-c4ccc(OC(F)(F)F)cc4)coc3c2)CC1 [KIN823]
- IC50 [1]: 153 nM
- IC50 [2]: 371 nM

Compound: O=c1c(-c2ccc(OC(F)(F)F)cc2)coc2cc(OCCN3CCOCC3)ccc12 [KIN824]
- IC50 [1]: 76 nM
- IC50 [2]: 217 nM

Compound: CS(=O)(=O)N1CCN(CCOc2ccc3c(=O)c(-c4ccc(OC(F)(F)F)cc4)coc3c2)CC1 [KIN826]
- IC50 [1]: 14 nM
- IC50 [2]: 196 nM

Compound: CC(=O)N1CCN(CCOc2ccc3c(=O)c(-c4ccc(Br)cc4)coc3c2)CC1 [KIN844]
- IC50 [1]: 2 nM
- IC50 [2]: 316 nM

Compound: CS(=O)(=O)N1CCN(CCOc2ccc3c(=O)c(-c4ccc(Br)cc4)coc3c2)CC1 [KIN848]
- IC50 [1]: 4 nM
- IC50 [2]: 258 nM

Compound: CS(=O)(=O)Oc1ccc2c(=O)c(-c3ccc(OCC4CCCOC4)cc3)coc2c1 (stereo not shown) [KIN850]
- IC50 [1]: 2 nM
- IC50 [2]: 1350 nM

Compound: CC(C)(C)c1ccc(-c2coc3cc(OCCO)ccc3c2=O)cc1 [KIN851]
- IC50 [1]: 417 nM
- IC50 [2]: 1190 nM

Compound: CN(c1ccc2c(=O)c(-c3ccc(OCC(F)(F)F)cc3)coc2c1)S(C)(=O)=O [KIN857]
- IC50 [1]: 65 nM
- IC50 [2]: 182 nM

Compound: CNCCOc1ccc2c(=O)c(-c3ccc(C(C)(C)C)cc3)coc2c1 [KIN861]
- IC50 [1]: 405 nM
- IC50 [2]: > 5000 nM

Compound: CN(c1ccc2c(=O)c(-c3ccc(OCC4CC4)cc3)coc2c1)S(C)(=O)=O [KIN865]
- IC50 [1]: 234 nM
- IC50 [2]: 176 nM

Compound: CCN(c1ccc2c(=O)c(-c3ccc(C(C)(C)C)cc3)coc2c1)S(C)(=O)=O [KIN866]
- IC50 [1]: 27 nM
- IC50 [2]: 507 nM

Compound: CN(c1ccc2c(=O)c(-c3ccc(OCC(C)(C)C)cc3)coc2c1)S(C)(=O)=O [KIN867]
- IC50 [1]: 7 nM
- IC50 [2]: 304 nM

Compound: CN(c1ccc2c(=O)c(-c3ccc(OCCC(C)(C)C)cc3)coc2c1)S(C)(=O)=O [KIN882]
- IC50 [1]: 30 nM
- IC50 [2]: 216 nM

Compound: O=c1c(-c2ccc(O)cc2)coc2cc(O)cc(O)c12 [genistein]
- interferon-stimulated gene (ISG) induction, screen outcome [6]: validated hit
